Measurements as given in patent US7312244B2, “Polyamine analog-amino acid conjugates useful as anticancer agents” (Cellgate, Inc., priority 1999, dated 2007).

How the values were obtained:
Format in all cases: cell-based
[1] = system: DU145 human prostate cancer cell line; experiment: MTT assay, percent cell survival, DU145; parameters: unit not given beside the values; settings: DU145 cells, six days after drug treatment
Description: (§1) Polyamine- and polyamine analog-amino acid conjugates of the invention were tested for their ability to inhibit growth of various cancer cell lines. The procedures used for testing activity are similar to those used in International Patent Application WO 00/66587 and U.S. Pat. No. 5,889,061 and are described below.
(§2) Human breast cancer cell line MCF7 was grown in Richter's Improved Modified Eagle's Medium supplemented with 10% fetal bovine serum (FBS) and 2.2 g/L sodium bicarbonate. Human brain tumor cell line U251 MG-NCI was grown in Dulbecco's Modified Eagle's Medium supplemented with 10% FBS. Human lung cancer cell line A549 was grown in Ham's F-12K medium (Cellgro, Mediatech, Inc., Va.), supplemented with 10% FBS and 2 mM L-glutamine. Human colon cancer cell line HT129 was cultured in McCoy's 5A medium (Gibco, BRL, Gaithersburg, Md.) supplemented with 10% FBS. Human prostate cancer cell lines PC-3, LNCAP and DuPro were grown in RPMI 1640 Medium (Cellgro, Mediatech, Inc., Va.) supplemented with 10% FBS. […]
(§3) A conventional MTT assay was used to evaluate percent cell survival. […] A microplate reader (“EMAX”-brand, Molecular Devices, Sunnyvale, Calif.) set at 570 nm was used to determine the optical density of the cultures. Results are expressed as a ratio of the optical density in drug-treated wells to the optical density in wells treated with vehicle only.

[2] = system: LnCap human prostate cancer cell line; experiment: MTT assay, percent cell survival, LnCap; settings: LnCap cells, six days after drug treatment, in µM (unit assumed)
Description: as §1, §2, §3

[3] = system: DuPro human prostate cancer cell line; experiment: MTT assay, percent cell survival, DuPro; parameters: unit not given beside the values; settings: DuPro cells, six days after drug treatment
Description: as §1, §2, §3

[4] = system: PC-3 human prostate cancer cell line; experiment: MTT assay, percent cell survival, PC-3; settings: PC-3 cells, six days after drug treatment, in µM (unit assumed)
Description: as §1, §2, §3

Structure (SMILES) | ID50 DU145 [1] | ID50 LnCap [2] | ID50 DuPro [3] | ID50 PC-3 [4]
CCNCCCCNCCCCNCCCCNCCCCNC(=O)CCN [SL-11143] | 0.06 | 6.4 | 13.75 | >31.25
CCNCCCCNCCCCNCCCCNCCCCN(CC)C(=O)C(N)CCC(N)=O (stereo not shown) [SL-11165] | – | >31.25 | >31.65 | 4.1
